Results on two compounds are retold here after patent US20150072395A1, “RECOMBINANT MICROORGANISMS AND METHODS OF USE THEREOF” (priority 2013, published 2015).

Experiment [1] deals with E. coli Top10 harbouring the empty vector pMTL85151. Nature of the experiment: Toxicity testing of DL-4-chlorophenylalanine, E. coli with empty vector. In kind it is cell-based. The note with it: plates and liquid media, 24 hours. As to the method:
(§1) E. coli Top10 and C. autoethanogenum DSM23693 harbouring the empty vector pMTL85151 were grown initially in the presence of DL-4-chlorophenylanine on plates and in liquid media to ascertain if the counter-selection marker has any effect on growth of the organisms.

Experiment [2] relates to E. coli TOP10 harbouring pMTL85151-pheS*. Nature of the experiment: Testing pheS* in E. coli (plating on LB with chloramphenicol and DL-4-chlorophenylalanine). In kind it is cell-based. As to the method:
To test the ability of the counter selection marker to work in E. coli, the plasmid pMTL85151-pheS* was transformed into TOP10 and grown under chloramphenicol selection only. Once the culture had reached an OD of 0.5, representing an exponential growth phase, 100 ul was plated onto LB plates containing chloramphenicol and DL-4-chlorophenylalanine as well as chloramphenicol alone as a control, in triplicate, […]

For experiment [3], the system named is C. autoethanogenum DSM23693 harbouring pMTL85151-pheS*. In kind it is cell-based, Clostridium autoethanogenum. To be noted: summary statement. As to the method: (§2) The three independent transformants of C. atoethanogenum DSM23693 harbouring pMTL85151-pheS*, as well as C. autoethanogenum DSM23693 harbouring pMTL85151, were grown in liquid PECT media supplemented with thiamphenicol and grown at 37° C. under CO only conditions. After 24 hours, 100 ul of each of the three independent, as well as the control pMTL85151, were plated into PETC-MES agar supplemented with either thiamphenicol alone, or thiamphenicol and DL-4-chlorophenylalanine and incubated for 48 hours.

Experiment [4] concerns C. autoethanogenum DSM23693 harbouring pMTL85151. Nature of the experiment: Toxicity/sensitivity testing of DL-4-chlorophenylalanine, C. autoethanogenum with empty vector. In kind it is cell-based, Clostridium autoethanogenum. As to the method: as §1, §2
In the next experiment the test system is LZ-pMTL83155. Nature of the experiment: Sensitivity of C. autoethanogenum transformants to ganciclovir (plating on PETC agar), empty-vector strain. In kind it is cell-based, Clostridium autoethanogenum. Here is the method:
The pMTL83155, pMTL83155-Hsv-tk and pMTL85155-PheS plasmids were introduced into C. autoethanogenum DSM23693 (a derivate of DSM10061) as described in WO2012053905. Outgrowth was performed in PETC broth and spread on PETC-agar media supplemented with 15 μg/ml thiamphenicol (Sigma) and 10 μg/ml trimethoprim (Sigma). Colonies were observed after 3 days of incubation at 37° C. in pressurized gas jars with 20 psi of a gas mix of 48% […] 2% H2, 20% CO2, 30% N2. Streaks of single colonies were made on PETC-agar media containing 15 μg/mlthiamphenicol.
(§3) The sensitivity of LZ-pMTL83155 and LZ-pMTL83155-hsv-tk to ganciclovir was tested by plating them on PETC agar media containing 20 nM ganciclovir only and PETC agar media containing 20 nM ganciclovir and 15 μg/ml thiamphenicol. […] The presence of Hvs-tk gene confers toxicity to ganciclovir.

Another experiment concerns LZ-pMTL83155-hsv-tk. In kind it is cell-based, Clostridium autoethanogenum. As to the method: The pMTL83155, pMTL83155-Hsv-tk and pMTL85155-PheS plasmids were introduced into C. autoethanogenum DSM23693 (a derivate of DSM10061) as described in WO2012053905. Outgrowth was performed in PETC broth and spread on PETC-agar media supplemented with 15 μg/ml thiamphenicol (Sigma) and 10 μg/ml trimethoprim (Sigma). […] Streaks of single colonies were made on PETC-agar media containing 15 μg/mlthiamphenicol.
as §3

As for `NC(Cc1ccc(Cl)cc1)C(=O)O` (racemic) [DL-4-chlorophenylalanine], the Effect on growth result in experiment [1] is “did not impede growth of either organism in liquid media or on plates”; in experiment [4] (plates and liquid media, 48 hours) it was “did not impede growth of either organism in liquid media or on plates”. Further, the “Growth on plates with chloramphenicol and DL-4-chlorophenylalanine” value in experiment [2] (24 hours at 37° C., compared with chloramphenicol alone) was “a light shading of small colonies”; in experiment [2] (after 36 hours) it was “outgrown to the same level as the chloramphenicol alone plates”. In experiment [3], the “Counterselection in combination with PheS*” value is recorded as “effective for counterselection in C. autoethanogenum”. For the same compound, the “Sensitivity to prodrug: growth on plate, column LZ-pMTL83155” value in experiment [4] (DL-4-Chlorophenlanine 0.20%, CSM PheS, control strain without CSM) is reported as “Lawn”. Also, in experiment [4] (PETC-MES agar, 48 hours), the “Growth on double selection plates (thiamphenicol and DL-4-chlorophenylalanine)” value is listed as “the same results as the thiamphenicol only plate”.

As for `Nc1nc(O)c2ncn(COC(CO)CO)c2n1` [Ganciclovir, ganciclovir], the “Colonies on ganciclovir plates” value with LZ-pMTL83155 (20 nM ganciclovir, with or without 15 μg/ml thiamphenicol) is on record as “observed only with LZ-pMTL83155 transformants”. Moreover, the “Sensitivity to prodrug: growth on plate, LZ-pMTL83155” value in the experiment on LZ-pMTL83155 (Ganciclovir 20 nM, CSM Hsv-tk) is “Lawn”. Further, in the experiment with LZ-pMTL83155-hsv-tk (Ganciclovir 20 nM, CSM Hsv-tk, PETC agar), the “Sensitivity to prodrug: growth on plate, LZ-pMTL83155-hsv-tk” value is recorded as 0-5 ^. For the same compound, the “Counterselection in combination with HSV-Tk” value with LZ-pMTL83155-hsv-tk (summary statement) is “effective for counterselection in C. autoethanogenum”.
